The results in this text go back to US6500794B1, “Granulated bleaching activator” (Kao Corporation, priority 1999, dated 2002).

The series can be described thus: Solubility of component (a) in aqueous nonionic surfactant solution, requirements (1) and (2). In kind it is physicochemical. The note with it: 10° C., stirred five minutes; for solubility of the component (a), Condition (2): 0.1 g component (a) (A-1) in 0.25 g nonionic surfactant / 500 ml water; for solubility of the component (a), Condition (1): 0.1 g component (a) (A-1) in 10 g nonionic surfactant / 500 ml water. As to the method: (1) when 0.1 g of the component (a) is added to an aqueous solution produced by dissolving 10 g of the component (b1) in 500 ml of water at 10° C. and the mixture was stirred for five minutes, the solubility of the component (a) just after the stirring is 50% by weight or more; and
Herein, the solubility was measured using the following method.
Method for Measuring Solubility
1 l glass beaker (cylinder type; inside diameter: 105 mm, height: 15 cm) was charged with 500 ml of an aqueous solution in which the component (b1) was dissolved in an amount corresponding to the requirements (1) and (2) and the solution was stirred (using a magnetic stirrer; a cylindrical stirrer piece with a diameter of 15 mm and a length of 52 mm, 200 rpm) in a thermostat kept at 10° C. At the stage in which the temperature of the solution reached 10° C., the powdery component (a) having a bulk density of […] and containing 10% by weight or less of particles with a grain size of 125 μm was added thereto in a prescribed amount and then the solution was stirred for 5 minutes. Thereafter, the solution was filtered through a membrane filter (Cellulose Nitrate A045A047A, 0.47 μm, manufactured by […]) and the content of the component (a) in the filtrate was determined by using high performance liquid chromatography to determine the solubility by the following formula. [formula]
Granulated Bleaching activator having the compositions shown in Table 2 were prepared by using the bleaching activator A-1 and nonionic surfactants B-1 and B-2 described below according to the method described below. Also, granulated bleaching activators were prepared in the same manner as above by using B′-1, B′-2 and B′-3 as comparative nonionic surfactants. Each solubility of these nonionic surfactants in the conditions (1) and (2) are shown below.

With “C12H25O—(EO)5—(PO)2—(EO)5—H [Example B-1]”, the “solubility of the component (a), Condition (2)” value (shortened to “solubility … (2)”) is 7% and the “solubility of the component (a), Condition (1)” value (shortened to “solubility … (1)”) turned out to be 79%.

As for C12H25O—(EO)7—H [B′-1], the “solubility … (2)” value amounted to 32% and the “solubility … (1)” value stood at 82%.

Regarding C12H25O—(EO)10—(PO)4—H [Example B-2], the “solubility … (2)” value worked out at 0.5% and the “solubility … (1)” value is 81%.

For the substance C12H25O—(EO)15—H [B′-3], the “solubility … (2)” value came to 3% and the “solubility … (1)” value was 46%.
